Experiments:
[1] = Pharmacokinetic evaluation of prodrugs in rats following intramuscular injection; assay type: in vivo, Male Sprague-Dawley rats; conditions: rat, IM injection
Experimental: Male Sprague-Dawley rats (Charles River Laboratories, Wilmington, Mass.) were obtained. Approximately 24 rats were used in each study. Rats were approximately 350-375 g at time of arrival. Rats were housed 2 per cage with ad libitum chow and water. Environmental conditions in the housing room: 64-67 OF, 30% to 70% relative humidity, and 12:12-h light:dark cycle. All experiments were approved by the institutional animal care and use committee.
(§1) Rats were dosed IM by means of a 25 gauge, ⅝ inch needle with 1 cc syringe 0.3 mL suspension was withdrawn from the vial containing the test compound (see Table E). The […] was injected in the muscles of the hind limb after anesthesia with isoflourane. Blood samples were collected via a lateral tail vein after brief anesthesia with Isoflurane. A 27½-G needle and 1 cc syringe without an anticoagulant was used for the blood collection. Approximately 350 μL of whole blood was collected at each sampling time-point of 6 hours, 24 hours and 2, 5, 7, 9, 12, 14, 21, 28, 35 days after administration. Once collected, whole blood was immediately transferred to tubes containing K2 EDTA, inverted 10-15 times and immediately placed on ice. The tubes were centrifuged for 2 minutes at >14,000 g's (11500 RPMs using Eppendorf Centrifuge 5417C, F45-30-11 rotor) at room temperature to separate plasma. Plasma samples were transferred to labeled plain tubes (MICROTAINER®) and stored frozen at <−70° C.
(§2) Drug concentrations in plasma samples were analyzed by liquid chromatography-mass spectroscopy using appropriate parameters for each compound. Half-life, volume of distribution, clearance, maximal concentration, and AUC were calculated by using WinNonlin Version 5.2_software (Pharsight, St. Louis, Mo.).

[2] = test system: D-Amphetamine-induced locomotion; test: Pharmacodynamic study in amphetamine-induced locomotion model; conditions: D-AMPH 1.5 mg/kg IP
[3] = Pharmacokinetic study for pioglitazone, Compounds 1002 and 1008; assay type: in vivo, rats; conditions: rat, intramuscular; pioglitazone prodrug, crystalline material in 2% CMC, 0.2% Tween 20, PBS buffer pH 6.7; dose 67 mg/kg in table
Experimental: as §1, §2
PK profile of compounds 1002 and 1008 was compared to pioglitazone using a similar model as described above. 20 mg of pioglitazone or 20 mg equivilant of pioglitazone prodrug was administered intramuscularly.

[4] = crystalline suspension or oil emulsion
[5] = oral oil solution (PO), 0.66, 10 and 20 mg/rat
[6] = solution in ethyl oleate, dose (mg/kg)
[7] = PO, at the higher dose of 20 mg

| SMILES | AUC0-14 [1, 4] | AUC0-T [1, 4] | also measured |
| --- | --- | --- | --- |
| CC(=O)OCN1C(=O)CCc2ccc(OCCCCN3CCN(c4cccc(Cl)c4Cl)CC3)cc21 [Compound 1, (7-(4-(4-(2,3-dichlorophenyl)piperazin-1-yl)butoxy)-2-oxo-3,4-dihydroquinolin-1(2H)-yl)methyl acetate] | 1673 ng·days/mL | 1938 ng·days/mL | – |
| CCCC(=O)OCN1C(=O)CCc2ccc(OCCCCN3CCN(c4cccc(Cl)c4Cl)CC3)cc21 [Compound 2, (7-(4-(4-(2,3-dichlorophenyl)piperazin-1-yl)butoxy)-2-oxo-3,4-dihydroquinolin-1(2H)-yl)methyl butyrate] | 1016.9 ng·days/mL | 1139.8 ng·days/mL | – |
| CCCCCC(=O)OCN1C(=O)CCc2ccc(OCCCCN3CCN(c4cccc(Cl)c4Cl)CC3)cc21 [Compound 4, (7-(4-(4-(2,3-dichlorophenyl)piperazin-1-yl)butoxy)-2-oxo-3,4-dihydroquinolin-1(2H)-yl)methyl hexanoate] | 1455.4 ng·days/mL | 1678 ng·days/mL | dose dependence of inhibition of distance travelled [2, 5]: did not appear to be dose dependent; inhibition of increase in total distance traveled caused by D-AMPH [2, 5]: significantly inhibited the increases in distance traveled caused by D-AMPH |
| CCCCCCCC(=O)OCN1C(=O)CCc2ccc(OCCCCN3CCN(c4cccc(Cl)c4Cl)CC3)cc21 [Compound 5, (7-(4-(4-(2,3-dichlorophenyl)piperazin-1-yl)butoxy)-2-oxo-3,4-dihydroquinolin-1(2H)-yl)methyl octanoate] | 1728.6 ng·days/mL | 1742 ng·days/mL | – |
| CCCCCCCCCC(=O)OCN1C(=O)CCc2ccc(OCCCCN3CCN(c4cccc(Cl)c4Cl)CC3)cc21 [Compound 6, (7-(4-(4-(2,3-dichlorophenyl)piperazin-1-yl)butoxy)-2-oxo-3,4-dihydroquinolin-1(2H)-yl)methyl decanoate] | 1490.3 ng·days/mL | 1678.1 ng·days/mL | AUC0-14 [1, 6]: 67 ng·days/mL; AUC0-T [1, 6]: 327 ng·days/mL |
| CCCCCCCCCCCC(=O)OCN1C(=O)CCc2ccc(OCCCCN3CCN(c4cccc(Cl)c4Cl)CC3)cc21 [Compound 7, (7-(4-(4-(2,3-dichlorophenyl)piperazin-1-yl)butoxy)-2-oxo-3,4-dihydroquinolin-1(2H)-yl)methyl dodecanoate] | 512.0 ng·days/mL | 1169.5 ng·days/mL | inhibition of increase in total distance traveled caused by D-AMPH [2, 7]: did appear to significantly inhibit increases in distance traveled caused by D-AMPH |
| CCCCCCCCCCCCCCCC(=O)OCN1C(=O)CCc2ccc(OCCCCN3CCN(c4cccc(Cl)c4Cl)CC3)cc21 [Compound 10, (7-(4-(4-(2,3-dichlorophenyl)piperazin-1-yl)butoxy)-2-oxo-3,4-dihydroquinolin-1(2H)-yl)methyl palmitate] | 302 ng·days/mL | 786.6 ng·days/mL | – |
| O=C(OCN1C(=O)CCc2ccc(OCCCCN3CCN(c4cccc(Cl)c4Cl)CC3)cc21)c1ccccc1 [Compound 31, (7-(4-(4-(2,3-dichlorophenyl)piperazin-1-yl)butoxy)-2-oxo-3,4-dihydroquinolin-1(2H)-yl)methyl benzoate] | 819.0 ng·days/mL | 997 ng·days/mL | – |
| CC(C)C(=O)OCN1C(=O)CCc2ccc(OCCCCN3CCN(c4cccc(Cl)c4Cl)CC3)cc21 [Compound 32, (7-(4-(4-(2,3-dichlorophenyl)piperazin-1-yl)butoxy)-2-oxo-3,4-dihydroquinolin-1(2H)-yl)methyl isobutyrate] | 1334.4 ng·days/mL | 1486 ng·days/mL | – |
| O=C(OCN1C(=O)CCc2ccc(OCCCCN3CCN(c4cccc(Cl)c4Cl)CC3)cc21)C1CCC1 [Compound 34, (7-(4-(4-(2,3-dichlorophenyl)piperazin-1-yl)butoxy)-2-oxo-3,4-dihydroquinolin-1(2H)-yl)methyl cyclobutanecarboxylate] | 2050 ng·days/mL | 2095.8 ng·days/mL | – |
| CNC(=O)OCN1C(=O)CCc2ccc(OCCCCN3CCN(c4cccc(Cl)c4Cl)CC3)cc21 [Compound 47, (7-(4-(4-(2,3-dichlorophenyl)piperazin-1-yl)butoxy)-2-oxo-3,4-dihydroquinolin-1(2H)-yl)methyl methylcarbamate] | 113 ng·days/mL | 176 ng·days/mL | inhibition of increase in total distance traveled caused by D-AMPH [2, 7]: did appear to significantly inhibit increases in distance traveled caused by D-AMPH |
| CC(C)OC(=O)OCN1C(=O)CCc2ccc(OCCCCN3CCN(c4cccc(Cl)c4Cl)CC3)cc21 [Compound 48, (7-(4-(4-(2,3-dichlorophenyl)piperazin-1-yl)butoxy)-2-oxo-3,4-dihydroquinolin-1(2H)-yl)methyl isopropyl carbonate] | 2238 ng·days/mL | 2264.6 ng·days/mL | – |
| O=C(OCN1C(=O)CCc2ccc(OCCCCN3CCN(c4cccc(Cl)c4Cl)CC3)cc21)N1CCOCC1 [Compound 49, (7-(4-(4-(2,3-dichlorophenyl)piperazin-1-yl)butoxy)-2-oxo-3,4-dihydroquinolin-1(2H)-yl)methyl morpholine-4-carboxylate] | 152 ng·days/mL | 199.7 ng·days/mL | – |
| CCOC(=O)OCN1C(=O)CCc2ccc(OCCCCN3CCN(c4cccc(Cl)c4Cl)CC3)cc21 [Compound 79, (7-(4-(4-(2,3-dichlorophenyl)piperazin-1-yl)butoxy)-2-oxo-3,4-dihydroquinolin-1(2H)-yl)methyl ethyl carbonate] | 907.4 ng·days/mL | 940 ng·days/mL | AUC0-14 [1, 6]: 954 ng·days/mL |
| CCCCCCOC(=O)OCN1C(=O)CCc2ccc(OCCCCN3CCN(c4cccc(Cl)c4Cl)CC3)cc21 [Compound 81, (7-(4-(4-(2,3-dichlorophenyl)piperazin-1-yl)butoxy)-2-oxo-3,4-dihydroquinolin-1(2H)-yl)methyl hexyl carbonate] | – | – | AUC0-14 [1, 6]: 584 ng·days/mL |
| CCCCCCCCCCOC(=O)OCN1C(=O)CCc2ccc(OCCCCN3CCN(c4cccc(Cl)c4Cl)CC3)cc21 [Compound 82, decyl (7-(4-(4-(2,3-dichlorophenyl)piperazin-1-yl)butoxy)-2-oxo-3,4-dihydroquinolin-1(2H)-yl)methyl carbonate] | – | – | AUC0-14 [1, 6]: 204 ng·days/mL |
| CC(C)CCOC(=O)OCN1C(=O)CCc2ccc(OCCCCN3CCN(c4cccc(Cl)c4Cl)CC3)cc21 [Compound 85, (7-(4-(4-(2,3-dichlorophenyl)piperazin-1-yl)butoxy)-2-oxo-3,4-dihydroquinolin-1(2H)-yl)methyl isopentyl carbonate] | 1233.9 ng·days/mL | 1348 ng·days/mL | – |
| CCCC(=O)OCN1C(=O)SC(Cc2ccc(OCCc3ccc(CC)cn3)cc2)C1=O (stereo not shown) [Compound 1002, (5-(4-(2-(5-ethylpyridin-2-yl)ethoxy)benzyl)-2,4-dioxothiazolidin-3-yl)methyl butyrate] | – | – | AUC0-14 [3]: 5350 ng·days/mL; AUC0-T [3]: 5972 ng·days/mL |
| CCCCCCCCCCCCCCCC(=O)OCN1C(=O)SC(Cc2ccc(OCCc3ccc(CC)cn3)cc2)C1=O (stereo not shown) [Compound 1008, (5-(4-(2-(5-ethylpyridin-2-yl)ethoxy)benzyl)-2,4-dioxothiazolidin-3-yl)methyl palmitoate] | – | – | AUC0-14 [3]: 5000 ng·days/mL; AUC0-T [3]: 6763 ng·days/mL |

— patent US10723728B2, “Prodrugs of Nh-acidic compounds” (ALKERMES PHARMA IRELAND LIMITED, priority 2009, dated 2020)
